Earlier results, collected in article PMC4703502 (Pharmacology & therapeutics, 2015).
Like-named read-outs stand apart in the source and are kept apart here.

How the values were obtained:
[1] = tested on: spermatogenesis
[2] = tested on: fertility; details: ref Tash et al., 2008
[3] = tested on: inhibin B; details: in vivo; ref Tash et al., 2008a
[4] = tested on: spermatozoa; details: ref O’Rand & Widgren, 2012

BMS-189453
effect on spermatogenesis ([1]; ref Chung et al., 2011): inhibit spermatogenesis

O=C(O)/C=C/c1nn(Cc2ccc(Cl)cc2Cl)c2cc(C(F)(F)F)ccc12 [Gamendazole]
fertility recovery ([2]; daily treatment with 6 mg/kg during 7 days): 29% | fertility recovery ([2]; rats, 3 mg/kg single oral dose): complete recovery | infertility ([2]; rats, 3 mg/kg single oral dose): not complete infertility | serum levels of inhibin B [3]: fall below measurable levels

O=C(NCCCCCCCCNC(=O)C(Cl)Cl)C(Cl)Cl [WIN 18,446]
effect on spermatogenesis ([1]; ref Amory et al., 2011): completely stops spermatogenesis

CC1(C)CC=C(c2cnc3ccccc3c2)c2cc(C(=O)Nc3ccc(C(=O)O)cc3)ccc21 [BMS-195614]
effect on spermatogenesis ([1]; tested in vivo, ref Chung et al., 2013): no effect

B1: SEMG1: semenogelin, seminal plasma protein that binds EPPIN on the sperm surface (protein, UniProt P04279 24-462, looked up)
Semenogelin-1: QKGGSKGRLPSEFSQFPHGQKGQHYSGQKGKQQTESKGSFSIQYTYHVDANDHDQSRKSQQYDLNALHKTTKSQRHLGGSQQLLHNKQEGRDHDKSKGHFHRVVIHHKGGKAHRGTQNPSQDQGNSPSGKGISSQYSNTEERLWVHGLSKEQTSVSGAQKGRKQGGSQSSYVLQTEELVANKQQRETKNSHQNKGHYQNVVEVREEHSSKVQTSLCPAHQDKLQHGSKDIFSTQDELLVYNKNQHQTKNLNQDQQHGRKANKISYQSSSTEERRLHYGENGVQKDVSQSSIYSQTEEKAQGKSQKQITIPSQEQEHSQKANKISYQSSSTEERRLHYGENGVQKDVSQRSIYSQTEKLVAGKSQIQAPNPKQEPWHGENAKGESGQSTNREQDLLSHEQKGRHQHGSHGGLDIVIIEQEDDSDRHLAQHLNNDRNPLFT
decrease in internal calcium levels ([4]; 3μM SEMG1): > 30% | time to decrease in internal pH ([4]; SEMG1 bound to EPPIN on the sperm surface): less than 1 minute
